According to patent EP1137645B1, “ALPHA-METHYLBENZYL-CONTAINING THIOUREA INHIBITORS OF HERPES VIRUSES CONTAINING A […] GROUP” (Wyeth, priority 1998, dated 2000):
In brackets after ≈: the same amount, converted by molar mass. Like-named read-outs stand apart in the source and are kept apart here.

How the values were obtained:
[1] = test system: HCMV recombinant mutant virus whose genome contains the prokaryotic beta-glucuronidase gene; assay: microbe, parasite or virus in culture; assay type: cell-based, human cytomegalovirus; conditions: Human betaherpesvirus 5, Fibroblast
Outline: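 Human foreskin fibroblasts infected with HCMV recombinant carrying beta-glucuronidase under a viral promoter (e.g. RV145) in presence of compound. At 96 h post-infection, lysates assayed for beta-glucuronidase by colorimetric or fluorogenic substrate as replication readout; IC50 estimated from varying compound amounts.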

[2] = test system: HSV- I; assay: HSV antiviral (ELISA) assay; assay type: cell-based; conditions: read-out: IC50 (ug/ml) HSV
Outline: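 Vero cells in DMEM with 2% FBS treated with compound 30 min before HSV-1 infection (MOI 0.006), then incubated ~24 h at 37°C. Viral replication measured by ELISA against glycoprotein D with β-galactosidase-linked secondary and fluorogenic substrate (ex 365/em 450 nm); IC50 relative to untreated fluorescence.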

[3] = test system: VZV strain Ellen; assay: VZV antiviral (ELISA) assay; assay type: cell-based
Outline: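 HFF cells infected with VZV Ellen at multiplicity below 0.1 overnight, then mixed infected/uninfected cells seeded with compound in DMEM/2% FBS and incubated three days at 37°C, 5% CO2.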

[4] = read-out: IC50 ug/ml HCMV, HCMV, human foreskin fibroblasts
[5] = Human alphaherpesvirus 3, HFF, read-out: IC50 (ug/ml) VZV, VZV strain Ellen, HFF cells, ELISA
[6] = Human alphaherpesvirus 3, VZV strain Ellen, HFF cells, ELISA, read-out: IC50 (ug/ml) VZV
[7] = Human alphaherpesvirus 3, HFF, read-out: % inhibition 10 ug/ml VZV
[8] = Human alphaherpesvirus 3, HFF, read-out: IC50 (ug/ml) VZV
[9] = Human alphaherpesvirus 3, read-out: % inhibition 10 ug/ml VZV, 10 ug/ml, VZV strain Ellen, HFF cells, ELISA

| SMILES | IC50 [1, 4] [µg/mL] | IC50 ([2]; Vero) [µg/mL] | IC50 [3, 5] [µg/mL] | IC50 ([1]; read-out: IC50 ug/ml HCMV) [µg/mL] | IC50 ([2]; HSV- I, Vero cells, ELISA) [µg/mL] | IC50 [3, 6] [µg/mL] | inhibition at 10 µg/mL [3, 7] [%] | IC50 [3, 8] [µg/mL] | inhibition at 10 µg/mL [3, 9] [%] |
| --- | --- | --- | --- | --- | --- | --- | --- | --- | --- |
| CC(NC(=S)Nc1ccc(NC(=O)c2ccc(Cl)cc2)cc1)c1ccc(F)cc1 (centres unmarked) [Example 756, 4-Chloro-N-(4-{3-[1-(4-fluoro-phenyl)-ethyl]-thioureido}-phenyl)-benzamide] | > 10 | > 10 | 0.3 (≈ 0.701 µM) |  |  |  |  |  |  |
| CC(NC(=S)Nc1ccc(NC(=O)c2ccccc2F)cc1)c1ccc(F)cc1 (centres unmarked) [Example 591, 2-Fluoro-N-(4-{3-[1-(4-fluoro-phenyl)-ethyl]-thioureido}-phenyl)-benzamide] |  |  |  | 7 (≈ 17 µM) | > 10 | 1.5 (≈ 3.65 µM) |  |  |  |
| CCSc1ccc(NC(=S)Nc2ccc(NC(=O)c3ccccc3F)cc2)cc1Cl [Example 386, N-{4-[3-(3-Chloro-4-ethylsulfanyl-phenyl)-thioureido]-phenyl}-2-fluoro-benzamide] | 2 (≈ 4.35 µM) |  |  |  | > 10 |  | 29 | > 10 |  |
| Cc1ccccc1C(=O)Nc1ccc(NC(=S)Nc2ccc(N(C)C3CCN(C)CC3)c(Cl)c2)cc1 [Example 375, N-[4-(3-{3-Chloro-4-[methyl-(1-methyl-piperidin-4-yl)-amino]-phenyl}-thioureido)-phenyl]-2-methyl-benzamide] | 1.5 (≈ 2.87 µM) |  |  |  | 5 (≈ 9.58 µM) |  | 95 | 7 (≈ 13.4 µM) |  |
| CC(NC(=S)Nc1ccc(NC(=O)c2nccc3ccccc23)cc1)c1cc2ccccc2o1 (centres unmarked) [Example 977, Isoquinoline-1-carboxylic acid {4-[3-(1-benzofuran-2-yl-ethyl)-thioureido]-phenyl}-amide] | > 10 | > 10 | 0.05 (≈ 0.107 µM) |  |  |  |  |  |  |
| C[C@@H](NC(=S)Nc1ccc(NC(=O)c2ccccc2F)cc1)c1ccc(Cl)cc1 [Example 1014, N-(4-{3-[(1R)-1-(4-Chloro-phenyl)-ethyl]-thioureido}-phenyl)-2-fluoro-benzamide] | 2.9 (≈ 6.78 µM) | > 10 | > 7.5 |  |  |  |  |  |  |
| COc1ccccc1C(C)NC(=S)Nc1ccc(NC(=O)c2ccccc2F)cc1 (centres unmarked) [Example 788, 2-Fluoro-N-(4-{3-[1-(2-methoxy-phenyl)-ethyl]-thioureido}-phenyl)-benzamide] | 1.8 (≈ 4.25 µM) | > 10 | > 7.5 |  |  |  |  |  |  |
| C[C@H](NC(=S)Nc1ccc(NC(=O)c2ccccc2F)cc1)c1ccccc1 [Example 1013, 2-Fluoro-N-{4-[3-((1S)-1-phenyl-ethyl)-thioureido]-phenyl}-benzamide] |  |  |  | 8.2 (≈ 20.8 µM) | > 10 | 0.27 (≈ 0.686 µM) |  |  |  |
| O=C(O)c1cccc(NC(=S)Nc2ccc(NC(=O)c3ccccc3F)cc2)c1 [Example 963, 3-{3-[4-(2-Fluoro-benzoylamino)-phenyl]-thioureido}-benzoic acid] |  |  |  | > 10 | > 10 | > 10 |  |  | 30 |
| O=C(CN1CCCC1)Nc1ccc(NC(=S)Nc2ccc(NC(=O)c3ccccc3F)cc2)cc1Cl [Example 417, N-(4-{3-[3-Chloro-4-(2-pyrrolidin-1-yl-acetylamino)-phenyl]-thioureido}-phenyl)-2-fluoro-benzamide] | > 10 |  |  |  | 6 (≈ 11.4 µM) |  | 15 | > 10 |  |
| COc1ccc(C(=O)Nc2ccc(NC(=S)NC(C)c3ccc(F)cc3)cc2)cc1 (centres unmarked) [Example 754, N-(4-{3-[1-(4-Fluoro-phenyl)-ethyl]-thioureido}-phenyl)-4-methoxy-benzamide] | > 10 | > 10 | 0.2 (≈ 0.472 µM) |  |  |  |  |  |  |
| COC(=O)c1cccc(NC(=S)Nc2ccc(NC(=O)c3ccccc3F)cc2)c1 [Example 950, 3-{3-[4-(2-Fluoro-benzoylamino)-phenyl]-thioureido}-benzoic acid methyl ester] |  |  |  | > 10 | 8 (≈ 18.9 µM) | > 10 |  |  |  |
| CC(=O)Nc1cccc(NC(=S)Nc2ccc(NC(=O)c3ccccc3F)cc2)c1 [Example 477, N-{4-[3-(3-Acetylamino-phenyl)-thioureido]-phenyl}-2-fluoro-benzamide] |  |  |  | > 10 | > 10 | > 10 |  |  | 15 |
| N#Cc1cccc(NC(=S)Nc2ccc(NC(=O)c3ccccc3F)cc2)c1 [Example 461, N-{4-[3-(3-Cyano-phenyl)-thioureido]-phenyl}-2-fluoro-benzamide] |  |  |  | > 10 | > 10 | > 10 |  |  | 33 |
| CSc1ccc(NC(=S)Nc2ccc(NC(=O)c3ccccc3C)cc2)cc1Cl [Example 342, N-{4-[3-(3-Chloro-4-methylsulfanyl-phenyl)-thioureido]-phenyl}-2-methyl-benzamide] | 1.4 (≈ 3.17 µM) |  |  |  | 0.2 (≈ 0.452 µM) |  | 62 | > 10 |  |
| COCCOc1ccc(NC(=S)Nc2ccc(NC(=O)c3ccccc3F)cc2)cc1Cl [Example 996, N-(4-{3-[3-Chloro-4-(2-methoxy-ethoxy)-phenyl]-thioureido}-phenyl)-2-fluoro-benzamide] | > 10 | > 10 | 10 (≈ 21.1 µM) |  |  |  |  |  |  |
| CC(NC(=S)Nc1ccc(NC(=O)c2cc3ccccc3o2)cc1)c1ccc(F)cc1 (centres unmarked) [Example 980, Benzofuran-2-carboxylic acid (4-{3-[1-(4-fluoro-phenyl)-ethyl]-thioureido}-phenyl)-amide] | > 10 |  |  |  | > 10 |  |  | 0.15 (≈ 0.346 µM) |  |
| COc1cc(OC)c(NC(=S)Nc2ccc(NC(=O)c3cccc(OCc4ccccc4)c3)cc2)cc1Cl [Example 210, 3-Benzyloxy-N-{4-[3-(5-chloro-2,4-dimethoxy-phenyl)-thioureido]-phenyl}-benzamide] | > 10 |  |  |  | 5 (≈ 9.12 µM) |  | 14 | > 10 |  |
| CC(NC(=S)Nc1ccc(NC(=O)c2ccc(C(F)(F)F)cc2)cc1)c1ccc(F)cc1 (centres unmarked) [Example 1021, N-(4-{3-[1-(4-Fluoro-phenyl)-ethyl]-thioureido}-phenyl)-4-trifluoromethyl-benzamide] |  |  |  | > 10 | > 10 | 0.4 (≈ 0.867 µM) |  |  |  |
| O=C(Nc1ccc(NC(=S)Nc2cc(Cl)ccc2Cl)cc1)c1ccccc1F [Example 931, N-{4-[3-(2,5-Dichloro-phenyl)-thioureido]-phenyl}-2-fluoro-benzamide] | > 10 |  |  |  | 4 (≈ 9.21 µM) |  | 51 | > 10 |  |
| COc1ccc(C(C)NC(=S)Nc2ccc(NC(=O)c3ccccc3F)cc2)cc1 (centres unmarked) [Example 777, 2-Fluoro-N-(4-{3-[1-(4-methoxy-phenyl)-ethyl]-thioureido}-phenyl)-benzamide] | 1.7 (≈ 4.01 µM) | > 10 | > 7.5 |  |  |  |  |  |  |
| O=C(Nc1ccc(NC(=S)Nc2cccc(F)c2)cc1)c1ccccc1F [Example 962, 2-Fluoro-N-{4-[3-(3-fluoro-phenyl)-thioureido]-phenyl}-benzamide] |  |  |  | > 10 | > 10 | > 10 |  |  | 10 |
| COc1cc(OC)c(NC(=S)Nc2ccc(NC(=O)c3ccccc3[N+](=O)[O-])cc2)cc1Cl [Example 143, N-{4-[3-(5-Chloro-2,4-dimethoxy-phenyl)-thioureido]-phenyl}-2-nitro-benzamide] | > 10 |  |  |  | 1 (≈ 2.05 µM) |  | 68 | > 15 |  |
| O=C(Nc1ccc(NC(=S)NCCc2cccc(F)c2)cc1)c1ccccc1F [Example 552, 2-Fluoro-N-(4-{3-[2-(3-fluoro-phenyl)-ethyl]-thioureido}-phenyl)-benzamide] |  |  |  | > 0.5 | > 10 | > 10 |  |  |  |
| CC(NC(=S)Nc1ccc(NC(=O)c2cccc(F)c2)cc1)c1ccc(F)cc1 (centres unmarked) [Example 800, 3-Fluoro-N-(4-{3-[1-(4-fluoro-phenyl)-ethyl]-thioureido}-phenyl)-benzamide] |  |  |  | > 10 | > 10 | > 7.5 |  |  |  |
| CC(NC(=S)Nc1ccc(NC(=O)c2ccccc2F)cc1)c1cccc(C(F)(F)F)c1 (centres unmarked) [Example 786, 2-Fluoro-N-(4-{3-[1-(3-trifluoromethyl-phenyl)-ethyl]-thioureido}-phenyl)-benzamide] |  |  |  | 1.5 (≈ 3.25 µM) | > 10 | > 7.5 |  |  |  |
| CC(=O)c1cccc(NC(=S)Nc2ccc(NC(=O)c3ccccc3F)cc2)c1 [Example 965, N-{4-[3-(3-Acetyl-phenyl)-thioureido]-pbenyl}-2-fluoro-benzamide] | > 10 |  |  |  | 5 (≈ 12.3 µM) |  | 12 | > 10 |  |
| COc1cc(OC)c(NC(=S)Nc2ccc(NC(=O)c3ccccc3-c3ccccc3)cc2)cc1Cl [Example 182, Biphenyl-2-carboxylic acid {4-[3-(5-chloro-2,4-dimethoxy-phenyl)-thioureido]-phenyl}-amide] | 10 (≈ 19.3 µM) | 10 (≈ 19.3 µM) | > 10 |  |  |  | 32 |  |  |
| COc1cc(OC)c(NC(=S)Nc2ccc(NC(=O)c3ccccc3O)cc2)cc1Cl [Example 139, N-{4-[3-(5-Chloro-2,4-dimethoxy-phenyl)-thioureido]-phenyl}-2-hydroxy-benzamide] | 6 (≈ 13.1 µM) |  |  |  | 6 (≈ 13.1 µM) |  | 95 | 4 (≈ 8.73 µM) |  |
